Results: patent US20240390383A1, “DIOXAZINES AND THEIR USE IN TREATMENT OF GBA-RELATED DISEASES” (ZEVRA DENMARK A/S, priority 2021, published 2024)

Target: T1, GCase (GBA) in human fibroblast cell line GM10915 harboring the L444P GBA mutation (Homo sapiens, UniProt P04062, L483P)
T1 construct: Human fibroblast cell line GM10915 harboring the L444P GBA mutation; host or cells: GM10915 human fibroblasts
T1 sequence (P04062 40-536 L483P): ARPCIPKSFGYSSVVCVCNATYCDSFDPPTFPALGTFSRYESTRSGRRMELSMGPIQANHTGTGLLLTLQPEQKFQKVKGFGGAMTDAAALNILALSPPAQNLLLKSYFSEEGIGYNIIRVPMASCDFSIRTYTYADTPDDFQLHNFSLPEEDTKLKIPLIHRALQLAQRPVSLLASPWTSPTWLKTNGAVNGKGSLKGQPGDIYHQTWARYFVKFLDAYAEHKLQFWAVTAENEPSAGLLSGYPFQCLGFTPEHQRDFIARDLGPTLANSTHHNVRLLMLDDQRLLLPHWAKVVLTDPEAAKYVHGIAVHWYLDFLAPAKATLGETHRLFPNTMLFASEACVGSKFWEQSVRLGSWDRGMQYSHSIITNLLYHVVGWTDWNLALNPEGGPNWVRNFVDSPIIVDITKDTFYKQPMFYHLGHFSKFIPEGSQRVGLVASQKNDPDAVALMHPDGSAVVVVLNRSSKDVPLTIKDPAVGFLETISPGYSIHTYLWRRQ
Assay: GCase activity assay (4-MUG substrate, normalised to crystal violet staining) in L444P GBA fibroblasts
Type: cell-based
Settings: 5 days exposure; for GBA EC1.5: concentration giving 150% GCase activity (1.5-fold induction), 8-point dose range; for Emax: maximum percent GCase activity relative to untreated cells in the dose range tested
Outline: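 Patient fibroblasts GM10915 (L444P GBA) exposed to compounds for five days over an 8-point range, with fresh dosing every 2–3 days. Intact-cell GCase measured with 2.5 mM 4-MUG at pH 4.0 for 23 h at 37 °C (ex/em 365/445 nm), normalised to crystal violet, as % of PBS basal; Emax is the maximum reached.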

Row | GBA EC1.5 | Emax | Compound
1 | 50 µM | 97% | CN1CCN(CC2CON=C(C3(Cc4cccnc4)CCNCC3)O2)CC1 (stereo not shown) [compound 686]
2 | 50 µM | 110% | Nc1ccc(N2CCCC(C3=NOCC(CN4CCCCC4)O3)C2)nc1 (stereo not shown) [compound 687]
3 | 50 µM | 137% | COC1CC(C2=NOCC(CN3CCCCC3)O2)CN(C)C1 (stereo not shown) [compound 689]
4 | 50 µM | 107% | CC(=O)N1CCCC1C1=NOCC(CN2CCCCC2)O1 (stereo not shown) [compound 692]
5 | 50 µM | 112% | c1cnc(N2CCC(C3=NOCC(CN4CCCCC4)O3)C2)nc1 (stereo not shown) [compound 693]
6 | 50 µM | 115% | CN(C)C(=O)N1CCCC1C1=NOCC(CN2CCCCC2)O1 (stereo not shown) [compound 694]
7 | 50 µM | 111% | CN1CCCC1C1=NOCC(CN2CCCCC2)O1 (stereo not shown) [compound 695]
8 | 50 µM | 107% | NC(=O)N1CCC(C2=NOCC(CN3CCCCC3)O2)C1 (stereo not shown) [compound 697]
9 | 50 µM | 137% | Nc1ccc(N2CCC(C3=NOCC(CN4CCCCC4)O3)C2)nc1 (stereo not shown) [compound 698]
10 | 50 µM | 110% | COc1cc(C)c(CC2(C3=NOCC(CN4CCCCC4)O3)CCNCC2)cn1 (stereo not shown) [compound 702]
11 | 50 µM | 113% | COc1ccc(CC2(C3=NOCC(CN4CCCCC4)O3)CCNCC2)c(C)n1 (stereo not shown) [compound 703]
12 | 50 µM | 117% | O[C@@H]1CC[C@@H](C2=NOCC(CN3CCCCC3)O2)C1 (stereo partly shown) [compound 704]
13 | 50 µM | 111% | NC(=O)N1CCCC(C2=NOCC(CN3CCCCC3)O2)C1 (stereo not shown) [compound 717]
14 | 17 µM | 341% | C[C@H](N)C(=O)N1CCCC(C2=NOCC(CN3CCCCC3)O2)C1 (stereo partly drawn) [compound 718, rac-(2S)-2-amino-1-(3-(5-(piperidin-1-ylmethyl)-5,6-dihydro-1,4,2-dioxazin-3-yl)piperidin-1-yl)propan-1-one]
15 | 5 µM | 175% | COc1cc(OC)c(CNCCC2=NOCC(CN3CCCCC3)O2)cn1 (stereo not shown) [compound 829]
16 | 2 µM | 311% | c1cnn(C2(C3=NOCC(CN4CCCCC4)O3)CCNCC2)c1 (stereo not shown) [compound 848]
17 | 4 µM | 203% | COc1ccc(C2(C3=NOCC(CN4CCCCC4)O3)CCNCC2)nc1 (stereo not shown) [compound 852]
18 | 2 µM | 134% | c1cc(C2CCCNC2)ccc1C1=NOCC(CN2CCCCC2)O1 (stereo not shown) [compound 856]
19 | 15 µM | 212% | C1CCN(CC2CON=C(C3CC4CNCC3O4)O2)CC1 (stereo not shown) [compound 862]
20 | 6 µM | 253% | C1CCN(CC2CON=C(CC3CNCCO3)O2)CC1 (stereo not shown) [compound 863]
21 | 6 µM | 217% | CN1CCC(C2=NOCC(C)(CN3CCCCC3)O2)CC1 (stereo not shown) [compound 870]
22 | 5 µM | 194% | c1nc(C2CCNCC2)sc1C1=NOCC(CN2CCCCC2)O1 (stereo not shown) [compound 874]
23 | 5 µM | 165% | c1nc(C2CCCNC2)sc1C1=NOCC(CN2CCCCC2)O1 (stereo not shown) [compound 875]
24 | 4 µM | 180% | c1sc(C2CCCNC2)nc1C1=NOCC(CN2CCCCC2)O1 (stereo not shown) [compound 876]
25 | 3 µM | 231% | c1sc(C2CCNCC2)nc1C1=NOCC(CN2CCCCC2)O1 (stereo not shown) [compound 878]
26 | 5 µM | 219% | C[C@]1(C2=NOC[C@H](CN3CCCCC3)O2)CCCNC1 [compound 881]
27 | 5 µM | 214% | C[C@@]1(C2=NOC[C@H](CN3CCCCC3)O2)CCCNC1 [compound 882]

Continued, compound first:

Row | Compound | GBA EC1.5 | Emax
28 | N[C@H]1CN[C@H](C2=NOCC(CN3CCCCC3)O2)C1 (stereo partly shown) [compound 597] | 50 µM | 106%
29 | Fc1cccc(C2(C3=NOCC(CN4CCCCC4)O3)CCCNC2)n1 (stereo not shown) [compound 598] | 1 µM | 179%
30 | CN1CC(C2=NOCC(CN3CCCCC3)N2)CC1=O (stereo not shown) [compound 601] | 50 µM | 111%
31 | CN1CCC2CN(CC3CON=C(C4(C)CCNCC4)O3)CC2C1 (stereo not shown) [compound 602] | 50 µM | 121%
32 | CN1[C@@H]2CC[C@H]1CN(CC1CON=C(C3(C)CCNCC3)O1)C2 (stereo partly shown) [compound 603] | 50 µM | 102%
33 | CN1CCO[C@@H]2CN(CC3CON=C(C4(C)CCNCC4)O3)C[C@@H]21 (stereo partly shown) [compound 604] | 50 µM | 119%
34 | CN(C)CC1CON=C(C2CCN(C)C2)O1 (stereo not shown) [compound 605] | 45 µM | 148%
35 | Cn1ccnc1CC1(C2=NOCC(CN3CCCCC3)O2)CCNCC1 (stereo not shown) [compound 607] | 50 µM | 123%
36 | OC1CCC(C2=NOCC(CN3CCCCC3)O2)CC1 (stereo not shown) [compound 609] | 50 µM | 119%
37 | CN(C)CC1CON=C(C2CCNC2)O1 (stereo not shown) [compound 615] | 50 µM | 108%
38 | O=C1CCC(C2=NOCC(CN3CCCCC3)O2)CN1 (stereo not shown) [compound 617] | 50 µM | 113%
39 | CN1CC2CC[C@H](C1)N2CC1CON=C(C2(C)CCNCC2)O1 (stereo partly shown) [compound 627] | 48 µM | 133%
40 | CN1CC2(C)CN(CC3CON=C(C4(C)CCNCC4)O3)CC2(C)C1 (stereo not shown) [compound 628] | 43 µM | 136%
41 | CN1CCC(C2=NOCC(CN3CCCCC3)O2)C1 (stereo not shown) [compound 629] | 11 µM | 247%
42 | c1csc(N2CCC(C3=NOCC(CN4CCCCC4)O3)CC2)n1 (stereo not shown) [compound 635] | 50 µM | 135%
43 | FC1(F)CNCCC1C1=NOCC(CN2CCCCC2)O1 (stereo not shown) [compound 636] | 50 µM | 126%
44 | O=C1NCCC1C1=NOCC(CN2CCCCC2)O1 (stereo not shown) [compound 637] | 50 µM | 111%
45 | NC(=O)N1CCC(C2=NOCC(CN3CCCCC3)O2)CC1 (stereo not shown) [compound 639] | 50 µM | 112%
46 | COc1ncc(CC2(C3=NOC(C)C(CN4CCCCC4)O3)CCN(C)C2)cc1Cl (stereo not shown) [compound 646] | 50 µM | 112%

Row | Compound | GBA EC1.5 | Emax
47 | COc1ncc(CC2(C3=NOC(C)C(CN4CCCCC4)O3)CCNC2)cc1Cl (stereo not shown) [compound 647] | 50 µM | 103%
48 | O=C1CC(C2=NOCC(CN3CCCCC3)O2)CCN1 (stereo not shown) [compound 649] | 50 µM | 103%
49 | OC1(C2=NOCC(CN3CCCCC3)O2)CCNCC1 (stereo not shown) [compound 650] | 50 µM | 141%
50 | c1cc2n(n1)CCC(C1=NOCC(CN3CCCCC3)O1)C2 (stereo not shown) [compound 656] | 50 µM | 123%
51 | c1cnc(N2CCC(C3=NOCC(CN4CCCCC4)O3)CC2)nc1 (stereo not shown) [compound 658] | 50 µM | 116%
52 | c1ccc(N2CCCC(C3=NOCC(CN4CCCCC4)O3)C2)nc1 (stereo not shown) [compound 661] | 50 µM | 140%
53 | c1nc2n(n1)CCC(C1=NOCC(CN3CCCCC3)O1)C2 (stereo not shown) [compound 662] | 50 µM | 138%
54 | CN1C(=O)CC(C2=NOCC(CN3CCCCC3)O2)c2ccccc21 (stereo not shown) [compound 664] | 50 µM | 137%
55 | O=c1[nH]nc2n1CCC(C1=NOCC(CN3CCCCC3)O1)C2 (stereo not shown) [compound 668] | 50 µM | 116%
56 | CN(C)C(=O)N1CCCC(C2=NOCC(CN3CCCCC3)O2)C1 (stereo not shown) [compound 670] | 50 µM | 126%
57 | CC(=O)NC1CCNCC1C1=NOCC(CN2CCCCC2)O1 (stereo not shown) [compound 671] | 50 µM | 146%
58 | c1ccc(N2CCC(C3=NOCC(CN4CCCCC4)O3)C2)nc1 (stereo not shown) [compound 672] | 50 µM | 127%
59 | CC(=O)N1CCC(C2=NOCC(CN3CCCCC3)O2)C1 (stereo not shown) [compound 674] | 50 µM | 123%
60 | CN(C)C(=O)N1CCC(C2=NOCC(CN3CCCCC3)O2)C1 (stereo not shown) [compound 675] | 50 µM | 102%
61 | CN1CCC(C2=NOCC(CN3CCCCC3)O2)CC1=O (stereo not shown) [compound 676] | 50 µM | 120%
62 | c1ccc(N2CCC(C3=NOCC(CN4CCCCC4)O3)CC2)nc1 (stereo not shown) [compound 678] | 50 µM | 106%
63 | Nc1ccc(N2CCC(C3=NOCC(CN4CCCCC4)O3)CC2)nc1 (stereo not shown) [compound 679] | 50 µM | 107%
64 | CC(=O)N1CCC(C2=NOCC(CN3CCCCC3)O2)CC1 (stereo not shown) [compound 683] | 50 µM | 113%
65 | CN(C)C(=O)N1CCC(C2=NOCC(CN3CCCCC3)O2)CC1 (stereo not shown) [compound 684] | 50 µM | 109%
